Test results as given in PMC8709388, “In Search of Small Molecules That Selectively Inhibit MBOAT4” (Molecules, 2021).
Where a SMILES comes first, the peptide text is derived from it. Where no end group is shown, it is not given here. [ ]: non-standard residue; d: D form. The star is where a group is joined. Tle = CC(C)(C)[C@H](N)C(=O)O; Octanoyl = CCCCCCCC(=O)*; Dap = NC[C@H](N)C(=O)O; Sar = CNCC(=O)O

What was measured:
[1] = target: T1, mouse GOAT (Mus musculus, UniProt P0C7A3); experiment: Acyltransferase assay: inhibition of proghrelin octanoylation by GOAT in sf9 membrane fractions; assay type: biochemical; details: for GOAT inhibition in vitro (in words): membrane fractions; for IC50: read-out: IC50 (GOAT, membrane fraction, in-house)
T1 construct: made in house; host or cells: sf9 insect cells (baculovirus, pFastBac1-mouseGOAT); total membrane fraction, not purified
T1 sequence (P0C7A3 1-435): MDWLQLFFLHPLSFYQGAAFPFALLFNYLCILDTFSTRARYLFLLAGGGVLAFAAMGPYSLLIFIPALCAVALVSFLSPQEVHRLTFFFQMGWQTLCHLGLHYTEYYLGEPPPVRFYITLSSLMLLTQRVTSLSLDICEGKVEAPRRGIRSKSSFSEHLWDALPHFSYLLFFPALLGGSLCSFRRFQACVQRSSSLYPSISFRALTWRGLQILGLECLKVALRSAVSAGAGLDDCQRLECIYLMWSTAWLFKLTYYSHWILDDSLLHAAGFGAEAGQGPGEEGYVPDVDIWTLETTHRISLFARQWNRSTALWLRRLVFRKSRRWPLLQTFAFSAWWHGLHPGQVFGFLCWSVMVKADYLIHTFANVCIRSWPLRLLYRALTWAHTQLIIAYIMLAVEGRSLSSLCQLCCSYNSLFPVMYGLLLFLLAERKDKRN
Description: pFastBac1-mouseGOAT and pGEX-GST-proGhrelin8His plasmid encoding for mouse proghrelin, fused to GST with TEV cleavage site to release proghrelin moiety, was a kind gift from the Brown and Goldstein laboratory. The BL21Gold E. coli chemically competent cells were transformed with the pGEX-GST-proGhrelin8His plasmid and selected on agar plates with ampicillin. A few colonies were used to inoculate 50 mL LB, and cultures were grown overnight at 37 °C. The next morning, 10 mL of overnight culture was used to inoculate 1L LB. A total of 4 flasks with 1L LB each were inoculated with 10 mL of the overnight culture, and bacterial cultures were grown at 37 °C until they reached OD600 ~ 0.6. The cultures were chilled on ice for 30 min and then 0.25 mM of IPTG was added to each culture. The cultures were then moved back to a shaker set to 18 °C and incubated overnight. Cells were harvested and resuspended in 200 mL buffer containing 25 mM Tris-HCl pH 8.0, 150 mM NaCl, 1 mM EDTA and 0.5 mg/mL lysozyme. The cell suspension was sonicated, and cell debris was removed by centrifugation. The soluble fraction was passed through glutathione resin by gravity. The resin was washed with 75 mL of lysis buffer without lysozyme. The GST-proGhrelin8His protein was eluted with lysis buffer without lysozyme, supplemented with 15 mM reduced glutathione, GSH. About 50 mg of target protein, as evaluated by SDS-PAGE, was eluted. The eluate was supplemented with 1 mM DTT and about 7.5 mg of recombinant GST-TEV protease (see below) was added. The solution was incubated at 16 °C overnight to allow complete release of proghrelin8His from GST. Prior to Ni-NTA chromatography, 5 mM CaCl2 was added, and the solution was spun down at 4000× g for 10 min. After elution from Ni-NTA resin, protein solution was dialyzed against buffer containing 10 mM Tris-HCl pH 8.5, 50 mM NaCl, 10% glycerol and 0.01% CHAPS using 3 kDa cutoff membrane with 3 buffer exchanges. The protein was quantified by absorbance at A280 and qualified by SDS-PAGE.
The baculovirus expression of mouse GOAT. DH10Bac E. coli strain (ThermoFisher, Waltham, MA, USA) was transformed with pFastBac1-mouseGOAT plasmid, and Bacmid DNA from 12 white colonies was analyzed by DNA sequencing and PCR reaction. All clones were transfected to sf9 cells and level of mGOAT expression was compared between clones from cells producing P2. The clone with the highest mGOAT expression level was used to produce P3. For membrane isolation, sf9 cells were seeded at 2–4 × 10^6 /mL in total 1 L volume of sf-900 serum-free medium (ThermoFisher) and infected with P3 virus. At day 2 post-infection, cells were harvested and resuspended in 40 mL of buffer containing 50 mM NaPi pH 7.2, 150 mM NaCl, 1 mM EDTA, 100 μM bis (4-nitrophenyl) phosphate, 2.5 μg/mL aprotinin, 10 μg/mL leupeptin, 10 μg/mL pepstatin A. Cell suspension was briefly sonicated and cell debris was removed by centrifugation at 3000× g for 10 min. Membrane fraction was collected from supernatant by centrifugation at 100,000× g for 1 h. Membrane pellet was resuspended in storage buffer (50 mM NaPi pH 7.2, 150 mM NaCl and 10% glycerol) and kept at −80 °C. Acyltransferase assay: The assay conditions included per 50 μL reaction: 50 μg of total sf9 membranes, various (for modality experiment) or fixed (for IC50) concentrations of recombinant proghrelin8His peptide and various concentrations of tested compound (for IC50), 100 μM palmitoyl CoA, 50 mM HEPES pH 7.0 and 1 μM [^3H] octanoyl CoA (~5.5 dpm/fmol—American Radioactive Chemicals). After incubation of the reaction mixture at 37C for 10 min, tubes were placed on ice and 10 μL of 1M HCl was added to each tube. Following the addition of 740 μL of cold quench buffer (50 mM NaPi pH 7.4, 10 mM Imidazole, 150 mM NaCl, 100 μM bis (4-nitrophenyl) phosphate, 1 mM phenylmethylsulfonyl fluoride and 0.1% Triton), 0.2 mL of 50% Ni-NTA slurry was added to each reaction. […]

[2] = test system: GOAT; details: cited from earlier work
[3] = Pharmacokinetics in mice; assay type: in vivo
[4] = sf9 membranes containing mouse GOAT, [3H]octanoyl CoA, proghrelin8His

CCCCOCC(=O)N1CCC(/C=C\c2c(C)nc3nonc3c2N)CC1 [compound 25, (Z)-1-(4-(2-(7-amino-5-methyl-[1,2,5]oxadiazolo[3,4-b]pyridin-6-yl)vinyl)piperidin-1-yl)-2-butoxyethan-1-one]
GOAT inhibition in vitro (in words) [1]: significantly impaired
IC50 [1, 4]: 0.44 µM

C[C@H](NC(=O)c1ccnn1C)C(=O)N1CCC(CCCc2cc(N)c3nonc3n2)CC1 [compound 35, (S)-N-(1-(4-(3-(7-amino-[1,2,5]oxadiazolo[3,4-b]pyridin-5-yl)propyl)pip-eridin-1-yl)-1-oxopropan-2-yl)-1-methyl-1H-pyrazole-5-carboxamide]
GOAT inhibition in vitro (in words) [1]: significantly impaired
IC50 (GOAT, membrane fraction, in-house) [1, 4]: inactive

CCCCCCCC(=O)NC[C@H](NC(=O)[C@@H](NC(=O)CNC)C(C)(C)C)C(N)=O [compound 12] (H-[Sar]-[Tle]-[Dap](Octanoyl)-NH2)
GOAT inhibition in vitro (in words) [1]: inactive
IC50 [1, 4]: > 1 µM

CCCCCCCC(=O)NC[C@H](NC(=O)[C@@H](NC(=O)CNC)C(C)(C)C)C(=O)N[C@@H](Cc1ccccc1)C(N)=O [compound 8] (H-[Sar][Tle][Dap](Octanoyl)F-NH2)
IC50 [1, 4]: 0.014 µM

CCCCCCCC(=O)NC[C@H](NC(=O)[C@@H](NC(=O)CNC)C(C)(C)C)C(=O)N[C@@H](Cc1ccccc1)C(=O)N[C@@H](CC(C)C)C(=O)N[C@@H](CO)C(=O)N1CCC[C@H]1C(N)=O [compound 15] (H-[Sar][Tle][Dap](Octanoyl)FLSP-NH2)
IC50 [1, 4]: 0.096 µM

N-(((3S,6S,9S)-9-(2-aminoacetamido)-3-benzyl-10,10-dimethyl-5,8-dioxo-1,11-dioxa-4,7-diazacyclopentadec-13-en-6-yl)methyl)octanamide [17a]
mode of GOAT inhibition ([1]; reaction rates at varied substrate concentrations, fixed inhibitor concentration): competing for the peptide substrate

CCCCCCCC(=O)NC[C@H](NC(=O)[C@@H](NC(=O)CNC)C(C)(C)C)C(=O)N[C@@H](Cc1ccccc1)C(=O)N[C@@H](CC(C)C)C(=O)N[C@@H](CO)C(N)=O [compound 14] (H-[Sar][Tle][Dap](Octanoyl)FLS-NH2)
IC50 [1, 4]: 0.062 µM

1: GOAT reaction product, acyl ghrelin, 28-residue lipopeptide octanoylated at Ser3 (GSS(Octanoyl)FLSPEHQRVQQRKESKKPPAKLQPR; UniProt Q9UBU3 24-51, looked up) [compound 1]
GOAT inhibition (in words) [2]: weakly inhibited

O=C(O)c1ccc2oc(SCc3ccc(Cl)cc3Cl)nc2c1 [compound 7]
mode of GOAT inhibition [2]: competed at the CoA site on GOAT

CCCCCCCC(=O)NC[C@H](NC(=O)[C@@H](NC(=O)CNC)C(C)(C)C)C(=O)N[C@@H](Cc1ccccc1)C(=O)N[C@@H](CC(C)C)C(N)=O [compound 13] (H-[Sar][Tle][Dap](Octanoyl)FL-NH2)
oral bioavailability [3]: low
pharmacokinetics [3]: poor
IC50 [1, 4]: 0.05 µM
